The text below walks through data of US4339461A, “N-Substituted 3-nitro-benzylamines” (Chevron Research Company, priority 1980, dated 1982).

Assay [1] has as its system malaria. The settings on record: disclosed by Burkhalter et al, 1948; cited from earlier work.
The test system of assay [2] is Powdery mildew pathogen, Erysiphe polygoni. Kind of assay: Fungicidal efficacy, control of Bean Powdery Mildew on sprayed bean seedlings. It is filed as in vivo. The settings on record: for Fungicidal Efficacy - % Control, BPM (Bean Powdery Mildew): 250 ppm spray, inoculated one day later, about 10 days; for fungicidal activity on Bean Powdery Mildew (in words): Table I test. The text has this:
The powdery mildew test was made using bean seedlings (variety Bountiful) with well-developed primary leaves. The pathogen was Erysiphe polygoni. […] The treated plants were inoculated one day after spray application of the test compound with the pathogen. […] The rate of infection on the leaves was made after about 10 days. The percent disease control provided by a given test compound was based on the disease reduction relative to untreated check plants. The results are reported in Table I. The test was repeated on Compound No. 1.

Assay [3] relates to fungi. The assay can be described thus: Fungicidal activity overall (tests of Examples 1 and 2, Table I). The format is in vivo.
For assay [4], the system named is Tomato Early Blight organism, Alternaria solani. The assay can be described thus: Fungicidal efficacy, control of Tomato Early Blight on sprayed tomato seedlings. The format is in vivo. To be noted: for Fungicidal Efficacy - % Control, TEB (Tomato Early Blight): 250 ppm spray, about 12 days; for fungicidal activity on Tomato Early Blight (in words): Table I test.
The subject of assay [5] is Tomato Late Blight, Phytophthora infestans. It is filed as in vivo. To be noted: 250 ppm spray; inoculated one day later; about 12 days.

For the compound `CCCN(CCC)Cc1ccc([N+](=O)[O-])cc1` [Compound 3, N,N-dipropyl-4-nitro-benzylamine, reference compound], in assay [1], the “antimalarial activity (in words)” value is on record as “antimalarial activity”. Moreover, in assay [2], the “Fungicidal Efficacy - % Control, BPM (Bean Powdery Mildew)” value (“Fungicidal Efficacy - % Control, BPM” for short) was 0%. The “fungicidal activity (in words)” value in assay [3] is given as “no fungicidal activity”. In assay [4], the “Fungicidal Efficacy - % Control, TEB (Tomato Early Blight)” value (shortened to “Fungicidal Efficacy - % Control, TEB”) was 0%.
In the case of `CCN(CC)Cc1ccc([N+](=O)[O-])cc1` [N,N-diethyl-4-nitro-benzylamine], the “antimalarial activity (in words)” value in assay [1] was “antimalarial activity”.
`CCCN(CCC)Cc1cccc(F)c1` [Compound 4, reference compound]: the “Fungicidal Efficacy - % Control, BPM” value in assay [2] is given as 0%. Besides, in assay [3], the “fungicidal activity (in words)” value is listed as “no fungicidal activity”. Besides, the “Fungicidal Efficacy - % Control, TEB” value in assay [4] stood at 0%.
Take `CSc1cccc(NCc2cccc([N+](=O)[O-])c2)c1` [Compound 5, N-(3'-methylthiophenyl)-3-nitro-benzylamine]: the “Fungicidal Efficacy - % Control, BPM” value in assay [2] is 79%. The “fungicidal activity (in words)” value in assay [3] was “activity comparable to that of Compound 1”.
Regarding `CSc1cccc(N(Cc2cccc([N+](=O)[O-])c2)S(C)(=O)=O)c1` [Compound 6, N-(3-nitrobenzyl)-N-(3'-methylthiophenyl)-methane sulfonamide], in assay [3], the “fungicidal activity (in words)” value is listed as “activity comparable to that of Compound 1”. The “Fungicidal Efficacy - % Control, TEB” value in assay [4] was 81%. Besides, the “Fungicidal Efficacy - % Control, TLB (Tomato Late Blight)” value in assay [5] is on record as 75%.
Turning to `CCCN(CCC)Cc1cccc([N+](=O)[O-])c1` [Compound 1, N,N-Dipropyl-3-Nitro-Benzylamine], the “% control, powdery mildew (repeat test)” value in assay [2] (16 ppm) was 0%; in assay [2] (40 ppm) it was 56%; in assay [2] (100 ppm) it was 83%. Also, the “Fungicidal Efficacy - % Control, BPM” value in assay [2] was 86%. Besides, the “fungicidal activity on Bean Powdery Mildew (in words)” value in assay [2] is recorded as “unexpected fungicidal activity”. Besides, the “fungicidal activity (in words)” value in assay [3] was “unexpected fungicidal activity”. For the same compound, the “% control, Tomato Early Blight (repeat test)” value in assay [4] (16 ppm) amounted to 90%; in assay [4] (40 ppm), 90%; in assay [4] (100 ppm), 93%. For the same compound, the “Fungicidal Efficacy - % Control, TEB” value in assay [4] is reported as 60%. In assay [4], the “fungicidal activity on Tomato Early Blight (in words)” value is “unexpected fungicidal activity”.
For the compound `CS(=O)(=O)c1cccc(NCc2cccc([N+](=O)[O-])c2)c1` [Compound 7], the “fungicidal activity (in words)” value in assay [3] is on record as “activity comparable to that of Compound 1”. In addition, the “Fungicidal Efficacy - % Control, TLB (Tomato Late Blight)” value in assay [5] worked out at 75%.
For `CCN(CC)Cc1cccc([N+](=O)[O-])c1` [Compound 2, N,N-diethyl-3-nitro-benzylamine, reference compound], the “antimalarial activity (in words)” value in assay [1] is “antimalarial activity”. Further, in assay [2], the “Fungicidal Efficacy - % Control, BPM” value was 0% and the “fungicidal activity on Bean Powdery Mildew (in words)” value was “no fungicidal activity”. In addition, in assay [4], the “Fungicidal Efficacy - % Control, TEB” value was found to be 0% and the “fungicidal activity on Tomato Early Blight (in words)” value is on record as “no fungicidal activity”.
